This note sets out measurements from ChEMBL document CHEMBL1139605, “Novel ketal ligands for the glucocorticoid receptor: in vitro and in vivo activity” (Bioorg Med Chem Lett, 2005).

As usually defined, the EC50 is the concentration needed to bring the measured effect to its halfway point. Read a high EC50 as lower potency in that assay. Broadly, the IC50 is the midpoint of a concentration-inhibition curve. One may read the clearance as the rate of elimination divided by the concentration. One may read the half-life as the time in which the quantity being followed falls by half. A high value points to slow loss. Broadly, the bioavailability is dose-corrected exposure relative to a reference, in per cent. Low readings indicate little systemic uptake, high ones much systemic uptake. The term Inhibition denotes the change of the read-out against control, counted positive when it falls. High values mean a response far below the control, low ones a response near the control.

Data set [1] is filed under the species Mus musculus. The data set is described as follows: Effective concentration required for inhibition of interleukin-6 in mouse thioglycolate-elicited peritoneal exudate cell line using 64% radiolabeled Dexamethasone. Type of data set: functional.
In data set [2] the test system is A549. The experiment in a line: Effective concentration for inhibition of interleukin-6 in human A549 lung carcinoma cell line using 64% radiolabeled Dexamethasone. It counts as functional, cell-based.
The target in data set [3] is T1, Glucocorticoid receptor (Homo sapiens, UniProt P04150).
T1 sequence (P04150 whole entry): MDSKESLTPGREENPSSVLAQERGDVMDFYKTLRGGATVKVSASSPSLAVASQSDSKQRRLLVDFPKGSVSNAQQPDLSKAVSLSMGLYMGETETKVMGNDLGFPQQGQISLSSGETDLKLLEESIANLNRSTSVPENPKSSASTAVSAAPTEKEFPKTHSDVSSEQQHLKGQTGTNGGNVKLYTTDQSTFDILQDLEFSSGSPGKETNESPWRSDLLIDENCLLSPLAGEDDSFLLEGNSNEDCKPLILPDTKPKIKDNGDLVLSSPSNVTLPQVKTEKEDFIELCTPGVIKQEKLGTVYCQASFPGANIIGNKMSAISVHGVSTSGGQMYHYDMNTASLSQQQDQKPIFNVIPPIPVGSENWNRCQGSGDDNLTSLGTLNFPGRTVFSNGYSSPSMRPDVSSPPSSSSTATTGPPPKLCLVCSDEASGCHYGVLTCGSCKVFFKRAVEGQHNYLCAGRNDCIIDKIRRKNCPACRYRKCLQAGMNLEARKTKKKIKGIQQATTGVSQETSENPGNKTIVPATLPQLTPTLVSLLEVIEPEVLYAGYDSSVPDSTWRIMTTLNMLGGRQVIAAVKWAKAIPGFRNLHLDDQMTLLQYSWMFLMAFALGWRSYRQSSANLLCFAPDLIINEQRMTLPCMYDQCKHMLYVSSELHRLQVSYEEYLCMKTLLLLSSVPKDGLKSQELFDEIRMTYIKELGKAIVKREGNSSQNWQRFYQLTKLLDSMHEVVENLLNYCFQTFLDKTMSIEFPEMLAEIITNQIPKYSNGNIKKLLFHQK
The data set is described as follows: Inhibition of human glucocorticoid receptor alpha isoform.

In data set [4] the test system is A549. The data set is described as follows: Effective concentration for inhibition of interleukin-6 in human A549 lung carcinoma cell line using 46% radiolabeled Dexamethasone. It counts as functional, cell-based.
The species named for data set [5] is Mus musculus. The experiment in a line: Effective concentration required for inhibition of interleukin-6 in mouse thioglycolate-elicited peritoneal exudate cell line using 69% radiolabeled Dexamethasone. Type of data set: functional.
The subject of data set [6] is A549. The data set is described as follows: Effective concentration for inhibition of interleukin-6 in human A549 lung carcinoma cell line using 60% radiolabeled Dexamethasone. Type of data set: functional, cell-based.
Data set [7] deals with T2, Estrogen receptor (Homo sapiens, UniProt P03372).
T2 sequence (P03372 whole entry): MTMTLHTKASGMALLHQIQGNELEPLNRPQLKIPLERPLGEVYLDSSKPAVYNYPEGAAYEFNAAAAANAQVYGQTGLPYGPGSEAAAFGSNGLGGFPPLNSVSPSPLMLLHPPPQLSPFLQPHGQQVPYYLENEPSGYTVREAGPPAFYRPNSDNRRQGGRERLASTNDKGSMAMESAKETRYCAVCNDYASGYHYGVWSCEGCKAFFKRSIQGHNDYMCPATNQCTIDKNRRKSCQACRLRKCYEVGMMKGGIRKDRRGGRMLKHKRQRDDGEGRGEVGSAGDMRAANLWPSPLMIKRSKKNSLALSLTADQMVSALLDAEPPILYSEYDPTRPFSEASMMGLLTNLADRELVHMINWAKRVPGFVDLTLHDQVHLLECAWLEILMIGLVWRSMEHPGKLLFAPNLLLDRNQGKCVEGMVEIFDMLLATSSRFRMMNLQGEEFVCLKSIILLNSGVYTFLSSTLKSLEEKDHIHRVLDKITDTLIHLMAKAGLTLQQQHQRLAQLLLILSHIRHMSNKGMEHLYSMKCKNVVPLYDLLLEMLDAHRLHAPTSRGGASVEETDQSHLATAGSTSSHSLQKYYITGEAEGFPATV
The data set is described as follows: Binding affinity for human estrogen receptor alpha.

Data set [8] concerns the target T1, Glucocorticoid receptor. The data set is described as follows: Binding affinity for human glucocorticoid receptor.
Data set [9] is described as follows: Clearance data in mouse at 2 mg/kg IV administration. The settings on record: in vivo. Also on record: dose 2 mg/kg, route intravenous. It counts as ADME, organism-based.
For data set [10], the target named is Estrogen receptor beta (Homo sapiens, UniProt Q92731). The data set is described as follows: Binding affinity for human estrogen receptor beta.
Data set [11] can be described thus: Volume of distribution in mouse at 2 mg/kg IV administration. Type of data set: ADME, organism-based. The arrangement: dose 2 mg/kg, route intravenous. Particulars: in vivo, read-out: Volume of distribution.
The species entered for data set [12] is Mus musculus. The data set is described as follows: Effective concentration required for interleukin-6 transrepression in peritoneal exudate cells of C57B1/6 mouse using 69% Dexamethasone. Type of data set: functional, cell-based.
A short description of data set [13]: Half life time in mouse at 2 mg/kg IV administration. The arrangement: dose 2 mg/kg, route intravenous. Particulars: in vivo. Type of data set: ADME, organism-based.
Data set [14] in a line: Bioavailability in mouse (dose 10 mg/kg p.o.). Type of data set: ADME, organism-based. The settings on record: in vivo, po.
In data set [15] the test system is Mus musculus. The data set is described as follows: Inhibition of LPS induced TNF-alpha secretion in mouse at an oral dose of 30 mg/kg relative to that produced by Dexamethasone at a dose of 0.3 mg/kg. It counts as functional.
Data set [16] has as its target T3, Mineralocorticoid receptor (Rattus norvegicus, UniProt P22199).
T3 sequence (P22199 whole entry): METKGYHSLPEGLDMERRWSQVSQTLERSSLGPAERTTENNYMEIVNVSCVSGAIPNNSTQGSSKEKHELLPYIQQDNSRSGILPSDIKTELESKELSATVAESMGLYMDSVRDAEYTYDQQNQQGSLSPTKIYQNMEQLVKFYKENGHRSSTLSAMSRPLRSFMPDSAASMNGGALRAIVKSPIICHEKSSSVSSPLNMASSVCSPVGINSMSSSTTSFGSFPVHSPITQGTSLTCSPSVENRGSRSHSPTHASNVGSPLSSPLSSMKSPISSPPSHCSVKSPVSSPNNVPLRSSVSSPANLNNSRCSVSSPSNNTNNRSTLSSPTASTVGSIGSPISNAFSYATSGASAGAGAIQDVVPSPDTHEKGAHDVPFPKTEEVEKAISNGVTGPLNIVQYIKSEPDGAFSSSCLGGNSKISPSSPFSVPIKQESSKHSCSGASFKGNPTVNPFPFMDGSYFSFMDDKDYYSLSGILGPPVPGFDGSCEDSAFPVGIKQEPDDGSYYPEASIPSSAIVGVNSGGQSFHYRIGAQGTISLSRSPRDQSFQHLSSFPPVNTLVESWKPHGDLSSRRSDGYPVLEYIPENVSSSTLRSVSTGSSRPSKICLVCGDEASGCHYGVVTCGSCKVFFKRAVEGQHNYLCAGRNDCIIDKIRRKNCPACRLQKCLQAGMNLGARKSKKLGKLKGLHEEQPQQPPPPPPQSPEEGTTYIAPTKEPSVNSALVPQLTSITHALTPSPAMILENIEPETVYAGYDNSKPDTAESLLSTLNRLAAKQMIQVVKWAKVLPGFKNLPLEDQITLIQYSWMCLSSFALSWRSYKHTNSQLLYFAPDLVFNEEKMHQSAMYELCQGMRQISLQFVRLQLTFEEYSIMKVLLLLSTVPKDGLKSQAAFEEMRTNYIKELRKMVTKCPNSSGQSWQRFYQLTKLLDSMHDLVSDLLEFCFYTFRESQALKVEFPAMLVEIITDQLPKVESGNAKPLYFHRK
The experiment in a line: Binding affinity for rat mineralocorticoid receptor.

The test system of data set [17] is A549. The experiment in a line: Effective concentration required for inhibition of interleukin-6 in human A549 lung carcinoma cell line using 93% radiolabeled Dexamethasone. Type of data set: functional, cell-based.
Data set [18] concerns HepG2. The experiment in a line: Effective concentration required for induction of tyrosine aminotransferase in human HepG2 cells using 74% radiolabeled Dexamethasone. It counts as functional, cell-based.
A short description of data set [19]: Effective concentration required for induction of glutamine synthetase in human skeletal muscle cells using 45% radiolabeled Dexamethasone. Type of data set: functional.
The species entered for data set [20] is Mus musculus. The experiment in a line: Effective concentration required for inhibition of interleukin-6 in mouse thioglycolate-elicited peritoneal exudate cell line using 111% radiolabeled Dexamethasone. It counts as functional.
The species entered for data set [21] is Mus musculus. The experiment in a line: Effective concentration required for inhibition of interleukin-6 in mouse thioglycolate-elicited peritoneal exudate cell line using 72% radiolabeled Dexamethasone. It counts as functional.
Data set [22] relates to A549. The data set is described as follows: Effective concentration for inhibition of interleukin-6 in human A549 lung carcinoma cell line using 58% radiolabeled Dexamethasone. It counts as functional, cell-based.

Estrogen receptor beta, sequence (Q92731 whole entry): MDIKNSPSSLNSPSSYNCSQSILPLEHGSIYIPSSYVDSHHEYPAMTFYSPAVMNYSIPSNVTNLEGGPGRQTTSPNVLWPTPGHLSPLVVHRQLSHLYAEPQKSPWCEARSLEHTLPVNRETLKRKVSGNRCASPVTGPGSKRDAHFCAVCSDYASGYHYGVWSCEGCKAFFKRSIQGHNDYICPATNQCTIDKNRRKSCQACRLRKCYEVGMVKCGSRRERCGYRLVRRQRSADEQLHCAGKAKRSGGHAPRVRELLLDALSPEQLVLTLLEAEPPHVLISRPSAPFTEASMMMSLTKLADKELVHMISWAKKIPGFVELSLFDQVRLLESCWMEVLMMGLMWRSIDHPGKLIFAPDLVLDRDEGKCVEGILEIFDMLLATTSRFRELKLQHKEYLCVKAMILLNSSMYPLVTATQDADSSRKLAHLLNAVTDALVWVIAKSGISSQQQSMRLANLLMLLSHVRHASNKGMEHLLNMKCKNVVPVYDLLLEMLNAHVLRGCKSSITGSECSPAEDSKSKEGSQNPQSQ

With `C[C@@H]1C[C@H](C)O[C@@]2(CCC3=Cc4c(cnn4-c4ccc(F)cc4)C[C@@]32C)O1`, the EC50 in [1] was 19 nM; in [2], 26 nM. This compound displayed an IC50 in [3] of 3.1 nM.

In [4], `C[C@@H]1CCO[C@@]2(CCC3=Cc4c(cnn4-c4ccc(F)cc4)C[C@@]32C)O1` gave an EC50 of 0.48 nM. The same compound returned an IC50 in [3] of 18 nM.

For `C[C@H]1C[C@H](C)OC2(CCC3=Cc4c(cnn4-c4ccc(F)cc4)C[C@@]32C)O1` (stereo partly specified), the EC50 is 54 nM in [5], 13 nM in data set [6] and 54 nM in [12]. Besides, the IC50 is greater than 10000 nM in data set [7]; 7.1 nM in [8]; greater than 10000 nM in [10]; 7.1 nM in [3]; greater than 10000 nM in data set [16]. The same compound returned a clearance in [9] of 118 mL/min/kg. The Vd in data set [11] came to 27.2 L/kg. For the same compound, the half-life in data set [13] was 3 h. Further, the bioavailability in data set [14] amounted to 23%. The same compound yielded an Inhibition in data set [15] of 80.8%.

As for `C/C=C/[C@H]1OC2(CCC3=Cc4c(cnn4-c4ccc(F)cc4)C[C@@]32C)O[C@@H]1/C=C/C`, the concentration giving a half-maximal response (EC50) in data set [17] was found to be 6.5 nM; in data set [18], 164 nM; in [19], 17 nM; in [20], 7.6 nM. The compound further came in with an IC50 in data set [3] of 2.7 nM.

Regarding `C[C@@H]1C[C@@H](C)OC2(CCC3=Cc4c(cnn4-c4ccc(F)cc4)C[C@@]32C)O1` (stereo in doubt; form 1), the EC50 in data set [21] is 45 nM; in data set [22], 7.5 nM. In addition, in data set [3], the IC50 was 8.4 nM.
